From patent US12162858B2, “Quinoline derivatives as inhibitors of AXL/MER RTK and CSF1R” (QURIENT CO., LTD., priority 2018, dated 2024)

What follows are compounds tested against CSF1R (Homo sapiens, UniProt P07333) (assay: Cellular CSF1R inhibition ELISA (p-CSF1R, M-CSF-induced) using THP-1 cells).
Type: cell-based
Set-up: THP-1 cells act as a model for human monocytes; endogenous in cells; host or cells: THP-1
From the text: The normal proto-oncogene c-fms encodes the macrophage growth factor (M-CSF, also known as CSF1) receptor involved in growth, survival, and differentiation along the monocyte-macrophage lineage. THP-1 cells act as a model for human monocytes. It confirms that an increased phosphorylation of CSF1R (p-CSF1R) can be observed, when induced by CSF1R ligand, CSF1.
The THP-1 cells should be maintained from 5×10^5 to 1×10^6 cells/ml in the cell culture flask. After centrifugation, the supernatant is aspirated. The cell pellet is re-suspended with pre-warmed growth medium (RPMI1640, 10% FBS, 0.05 mM 2-Mercaptoethanol) and cells are separated by pipetting 6 times up and down with a 10 ml serological pipette. The cell suspension has to be diluted to a final concentration of 2×10^5 cells per 80 μl with pre-warmed growth medium. 80 μl of cell suspension is added to all wells of plates. Cell-plates are incubated at 37° C./5% CO2. Dissolve compound in 100% DMSO to make 10 mM stock solutions (Aliquots stored in the Nitrogen Cabinet). Dilute 10 mM compounds solutions for 2-fold in 100% DMSO to get 5 mM solutions (10 μl+10 μl DMSO), and then make a 3-fold serial dilution (10 μl+20 μl DMSO) for 10 doses. For reference compounds: Dilute 10 mM compounds solutions for 20-fold in 100% DMSO to get 0.5 mM solutions (2 μl+38 μl DMSO), and then make a 3-fold serial dilution (10 μl+20 μl DMSO) for 10 doses. Transfer 2 μl diluted compounds to 198 μl medium to get solution of 50 μM concentration at top point for compounds and 5 μM for reference compounds. Then transfer 20 μl cpd solution into assay plate (Duplicate wells). The plate is incubated at 37° C./5% CO2 for 24 h. The final concentration of DMSO in all wells is […]. Reconstitute human M-CSF at 50 μg/ml in sterile water. (Aliquots stored in −80° C.). 1:1000 dilute human M-CSF by fresh medium to 50 ng/ml. After 24 h compounds treatment, transfer 25 μl diluted human M-CSF (50 ng/ml) to cell plate according to the plate map. The final concentration of human M-CSF in all wells is 10 ng/ml.
The plates is incubated at 37° C./5% CO2 for 5 min. In the beginning the appropriate amount of lysis buffer complete (100 μL/well) is prepared and stored on ice. After 5 min human M-CSF stimulation, wash plates once with 300 μL ice cold PBS. Then 100 μl lysis buffer is added to each well. The plate is shacked for 40 min at 4° C. Plates can now be stored at −20° C. After equilibrate the micro-well strips at room temperature, break off the required number of micro-wells. Place the micro-wells in the strip holder. Unused micro-wells must be resealed and stored at 4° C. immediately. Add 90 μl of cell lysate to the appropriate well. Seal with tape and press firmly onto top of micro-wells. Incubate the plate for 2 h at 37° C. Gently remove the tape and wash wells 4 times with 1× Wash Buffer, 200 μl each time for each well. Add 100 μl of reconstituted Detection Antibody (green color) to each well. Seal with tape and incubate the plate at 37° C. for 1 h. Repeat wash procedure. Add 100 μl of reconstituted HRP-Linked secondary antibody to each well. Seal with tape and incubate the plate for 30 min at 37° C. Repeat wash procedure. Add 100 μl of TMB Substrate to each well. Seal with tape and incubate the plate for 10 min at 37° C. or 30 min at 25° C. Calculations and Formulas: The following calculations and formulas are used for data analysis using XL Fit software: The curve fitting was made using the Sigmoidal Dose-Response Model (Fit model, 205).

Chain of CSF1R (P07333 20-972): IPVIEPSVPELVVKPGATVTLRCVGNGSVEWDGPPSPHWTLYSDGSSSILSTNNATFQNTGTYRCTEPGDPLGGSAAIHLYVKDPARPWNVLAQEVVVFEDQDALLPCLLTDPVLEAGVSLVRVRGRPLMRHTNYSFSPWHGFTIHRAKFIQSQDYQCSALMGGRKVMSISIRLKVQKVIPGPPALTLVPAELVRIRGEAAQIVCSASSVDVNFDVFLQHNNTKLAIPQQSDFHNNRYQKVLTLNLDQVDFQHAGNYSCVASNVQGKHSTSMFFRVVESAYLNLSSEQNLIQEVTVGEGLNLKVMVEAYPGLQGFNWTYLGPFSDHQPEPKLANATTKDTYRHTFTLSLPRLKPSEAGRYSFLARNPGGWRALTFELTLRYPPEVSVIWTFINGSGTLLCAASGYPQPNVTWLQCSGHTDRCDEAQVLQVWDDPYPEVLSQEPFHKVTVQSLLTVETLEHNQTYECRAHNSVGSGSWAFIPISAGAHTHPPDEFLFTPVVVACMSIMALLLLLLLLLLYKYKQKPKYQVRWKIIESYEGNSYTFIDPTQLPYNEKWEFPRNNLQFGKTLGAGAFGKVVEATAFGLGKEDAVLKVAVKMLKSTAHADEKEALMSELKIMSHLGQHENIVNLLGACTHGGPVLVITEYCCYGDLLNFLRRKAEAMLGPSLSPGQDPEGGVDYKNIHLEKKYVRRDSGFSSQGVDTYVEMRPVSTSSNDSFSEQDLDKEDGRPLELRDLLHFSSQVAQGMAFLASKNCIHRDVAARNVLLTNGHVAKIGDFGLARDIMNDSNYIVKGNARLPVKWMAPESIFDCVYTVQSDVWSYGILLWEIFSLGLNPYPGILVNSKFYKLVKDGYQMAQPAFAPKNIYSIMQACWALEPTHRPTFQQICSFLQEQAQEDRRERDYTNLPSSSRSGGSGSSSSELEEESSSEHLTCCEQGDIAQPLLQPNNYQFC

Row | SMILES | IC50 [µM]
1 | COc1cc2nccc(Oc3ccc(NC(=O)c4nn(C5CC5)cc4OCC4CCC4)nc3)c2cc1OC [Compound 111] | 0.5 to 1
2 | COc1cc2nccc(Oc3ccc(NC(=O)c4nn(C5CCN(C)C5)cc4OCC(F)(F)F)cc3F)c2cc1OC (centres unmarked) [Compound 96] | ≥ 1
3 | COCCn1cc(OCC(F)(F)F)c(C(=O)Nc2ccc(Oc3ccnc4cc(OC)c(OC)cc34)cn2)n1 [Compound 10] | < 0.5
4 | COc1cc2nccc(Oc3ccc(NC(=O)c4nn(CC(C)C)cc4OCC(F)(F)F)nn3)c2cc1OC [Compound 124] | 0.5 to 1
5 | COc1cc2nccc(Oc3ccc(NC(=O)c4nn(C5CCN(C)C5)cc4OCC(F)(F)F)cc3)c2cc1OC (centres unmarked) [Compound 100] | ≥ 1
6 | COc1cc2nccc(Oc3ccc(NC(=O)c4nn(CC5COC5)cc4OCC(F)(F)F)nc3)c2cc1OC [Compound 92] | < 0.5
7 | COCCOc1cn(C2CC2)nc1C(=O)Nc1ccc(Oc2ccnc3cc(OC)c(OC)cc23)cn1 [Compound 107] | < 0.5
8 | COc1cc2nccc(Oc3ccc(NC(=O)c4nn(C5CCCC5)cc4OCC(F)(F)F)cn3)c2cc1OC [Compound 131] | ≥ 1
9 | COc1cc2nccc(Oc3ccc(NC(=O)c4nn(C5CC5)cc4OC(C)C)nc3)c2cc1OC [Compound 108] | < 0.5
10 | CCCn1cc(OCCOC)c(C(=O)Nc2ccc(Oc3ccnc4cc(OC)c(OC)cc34)cn2)n1 [Compound 105] | < 0.5
11 | CCn1cc(OCC(F)(F)F)c(C(=O)Nc2ccc(Oc3ccnc4cc(OC)c(OC)cc34)cn2)n1 [Compound 4] | < 0.5
12 | CCCn1cc(OCC(F)F)c(C(=O)Nc2ccc(Oc3ccnc4cc(OC)c(OC)cc34)cn2)n1 [Compound 12] | < 0.5
13 | COc1cc2nccc(Oc3ccc(NC(=O)c4nn(CC5COC5)cc4OCC(F)(F)F)nn3)c2cc1OC [Compound 123] | ≥ 1
14 | COc1cc2nccc(Oc3ccc(NC(=O)c4nn(CCN)cc4OCC(F)(F)F)nn3)c2cc1OC [Compound 125] | ≥ 1
15 | COc1cc2nccc(Oc3ccc(NC(=O)c4nn(C5CCNC5)cc4OCC(F)(F)F)nn3)c2cc1OC (centres unmarked) [Compound 122] | ≥ 1
16 | COc1cc2nccc(Oc3ccc(NC(=O)c4nn(CCOC5CC5)cc4OCC(F)(F)F)cc3)c2cc1OC [Compound 118] | 0.5 to 1
17 | COc1cc2nccc(Oc3ccc(NC(=O)c4nn(CCO)cc4OCC(F)(F)F)cn3)c2cc1OC [Compound 129] | ≥ 1
18 | COc1cc2nccc(Oc3ccc(NC(=O)c4nn(C5CC5)cc4OCCF)nc3)c2cc1OC [Compound 110] | < 0.5

Row | SMILES | IC50 [µM]
19 | COc1cc2nccc(Oc3ccc(NC(=O)c4nn(CCOC5CC5)cc4OCC(F)(F)F)cc3C)c2cc1OC [Compound 117] | < 0.5
20 | COc1cc2nccc(Oc3ccc(NC(=O)c4nn(C5CCN(C)C5)cc4OCC(F)(F)F)cn3)c2cc1OC (centres unmarked) [Compound 133] | ≥ 1
21 | COc1cc2nccc(Oc3ccc(NC(=O)c4nn(CC5COC5)cc4OCC(F)(F)F)cc3)c2cc1OC [Compound 101] | ≥ 1
22 | COc1cc2nccc(Oc3ccc(NC(=O)c4nn(C)cc4OCC(F)(F)F)nn3)c2cc1OC [Compound 102] | < 0.5
23 | COc1cc2nccc(Oc3ccc(NC(=O)c4nn(C5CC5)cc4OCC(F)F)nc3)c2cc1OC [Compound 109] | < 0.5
24 | COc1cc2nccc(Oc3ccc(NC(=O)c4nn(CCOC5CC5)cc4OCC(F)(F)F)cn3)c2cc1OC [Compound 130] | ≥ 1
25 | CCCn1cc(OCC2COC2)c(C(=O)Nc2ccc(Oc3ccnc4cc(OC)c(OC)cc34)cn2)n1 [Compound 106] | < 0.5
26 | COc1cc2nccc(Oc3ccc(NC(=O)c4nn(CCOC5CC5)cc4OCC(F)(F)F)cc3F)c2cc1OC [Compound 116] | 0.5 to 1
27 | CNCCn1cc(OCC(F)(F)F)c(C(=O)Nc2ccc(Oc3ccnc4cc(OC)c(OC)cc34)cn2)n1 [Compound 11] | 0.5 to 1
28 | CCn1cc(OC(C)C)c(C(=O)Nc2ccc(Oc3ccnc4cc(OC)c(OC)cc34)cn2)n1 [Compound 6] | < 0.5
29 | COc1cc2nccc(Oc3ccc(NC(=O)c4nn(CC5COC5)cc4OCC(F)(F)F)cc3F)c2cc1OC [Compound 97] | ≥ 1
30 | COc1cc2nccc(Oc3ccc(NC(=O)c4nn(CCOC5CC5)cc4OCC(F)(F)F)c(F)c3)c2cc1OC [Compound 115] | 0.5 to 1
31 | COc1cc2nccc(Oc3ccc(NC(=O)c4nn(C5CC5)cc4OCCF)nn3)c2cc1OC [Compound 113] | < 0.5
32 | COc1cc2nccc(Oc3ccc(NC(=O)c4nn(CC5COC5)cc4OCC(F)(F)F)cc3C)c2cc1OC [Compound 99] | 0.5 to 1
33 | COCCn1cc(OCC(F)(F)F)c(C(=O)Nc2ccc(Oc3ccnc4cc(OC)c(OC)cc34)nc2)n1 [Compound 104] | ≥ 1
34 | CNCCn1cc(OCC(F)(F)F)c(C(=O)Nc2ccc(Oc3ccnc4cc(OC)c(OC)cc34)nn2)n1 [Compound 127] | ≥ 1
35 | COCCn1cc(OCC(F)(F)F)c(C(=O)Nc2ccc(Oc3ccnc4cc(OC)c(OC)cc34)nn2)n1 [Compound 126] | ≥ 1

Second part, the compound after the results:

Row | IC50 [µM] | SMILES
36 | ≥ 1 | COc1cc2nccc(Oc3ccc(NC(=O)c4nn(C5CC5)cc4NCC(F)(F)F)nn3)c2cc1OC [Compound 148]
37 | < 0.5 | COc1cc2nccc(Oc3ccc(NC(=O)c4nn(CC(C)O)cc4OCCF)nc3)c2cc1OC (centres unmarked) [Compound 152]
38 | ≥ 1 | CNCCOc1cn(C2CC2)nc1C(=O)Nc1ccc(Oc2ccnc3cc(OC)c(OC)cc23)nn1 [Compound 160]
39 | ≥ 1 | CCCn1cc(OCCN(C)C)c(C(=O)Nc2ccc(Oc3ccnc4cc(OC)c(OC)cc34)c(F)c2)n1 [Compound 165]
40 | ≥ 1 | COc1cc2nccc(Oc3ccc(NC(=O)c4nn(C5CC5)cc4OCC4COC4)nn3)c2cc1OC [Compound 161]
41 | < 0.5 | COc1cc2nccc(Oc3ccc(NC(=O)c4nn(CC(C)O)cc4OC(C)C)nc3)c2cc1OC (centres unmarked) [Compound 151]
42 | ≥ 1 | COc1cc2nccc(Oc3ccc(NC(=O)c4nn(C5CC5)cc4OCC4CCC4)nn3)c2cc1OC [Compound 149]
43 | < 0.5 | CCCn1cc(NCCC(F)(F)F)c(C(=O)Nc2ccc(Oc3ccnc4cc(OC)c(OC)cc34)cn2)n1 [Compound 158]
44 | < 0.5 | COc1cc2nccc(Oc3ccc(NC(=O)c4nn(C5CC5)cc4OCC(F)F)nn3)c2cc1OC [Compound 162]
45 | ≥ 1 | CNCCn1cc(OCC(F)(F)F)c(C(=O)Nc2ccc(Oc3ccnc4cc(OC)c(OC)cc34)c(F)c2)n1 [Compound 155]
46 | ≥ 1 | CCCn1cc(OCC2CNC2)c(C(=O)Nc2ccc(Oc3ccnc4cc(OC)c(OC)cc34)cn2)n1 [Compound 159]
47 | ≥ 1 | CCCn1cc(OCC(F)(F)F)c(C(=O)Nc2ccc(Oc3ccnc4cc(OC)c(OC)cc34)nc2)n1 [Compound 139]
48 | < 0.5 | COc1cc2nccc(Oc3ccc(NC(=O)c4nn(C5CC5)cc4NCCC(F)(F)F)nc3)c2cc1OC [Compound 142]
49 | ≥ 1 | CNCCn1cc(OCC(F)(F)F)c(C(=O)Nc2ccc(Oc3ccnc4cc(OC)c(OC)cc34)c(C)c2)n1 [Compound 156]
50 | ≥ 1 | CNCCn1cc(OCC(F)(F)F)c(C(=O)Nc2ccc(Oc3ccnc4cc(OC)c(OC)cc34)cc2F)n1 [Compound 154]
51 | ≥ 1 | CNCCOc1cn(C2CC2)nc1C(=O)Nc1ccc(Oc2ccnc3cc(OC)c(OC)cc23)cn1 [Compound 141]
52 | ≥ 1 | CCCn1cc(OCC2CCOCC2)c(C(=O)Nc2ccc(Oc3ccnc4cc(OC)c(OC)cc34)cn2)n1 [Compound 164]
53 | ≥ 1 | COc1cc2nccc(Oc3ccc(NC(=O)c4nn(CC5COC5)cc4OCC(F)(F)F)cn3)c2cc1OC [Compound 134]
